Results on 81 compounds are retold here after PMC12040169 (PLOS Biology, 2025).

The data set can be described thus: in vitro. The note with it: human, hela cells, % viability.

As usually defined, the viability is a read-out of living cells in per cent, often relative to untreated cells.

Take `CCOC(=O)CNS(=O)(=O)c1ccc(-c2ccccc2)cc1` [CBK034435]: the viability at 28.5 h, 10 µM is 99.5%.

Consider `COc1ccc(OC)c(/N=C2\CC(=O)CC(C)(C)C2)c1` [CBK020541], for which the viability at 28.5 h, 10 µM came out at 106%.

Take `CCN1CCN(C(=O)C2CCCCC2C(=O)O)CC1` (stereo not drawn) [CBK270337]: the viability at 28.5 h, 10 µM worked out at 111%.

Consider `O=C(CN1C(=O)c2ccccc2C1=O)Nc1cccc2cccnc12` [CBK261320], for which the viability at 28.5 h, 10 µM worked out at 91.2%.

As for `CC(=O)N1CCN(CCNc2ncnc3sc4c(c23)CCC(C)C4)CC1` (stereo not drawn) [CBK304897], the viability at 28.5 h, 10 µM was 93%.

For the compound `CCOc1ccccc1-c1ccccc1NC(=O)c1ccc2c(c1)ncn2C1CC1` [CBK285808], the viability at 28.5 h, 10 µM was determined as 84.3%.

With `Cc1ccc(C(=O)NCc2nc3ccccc3[nH]2)c(N2CCOCC2)n1` [CBK106200], the viability at 28.5 h, 10 µM stood at 88.4%.

As to `O=C1N/C(=N/c2ccccc2Cl)S/C1=C/c1ccc(-c2ccccc2Cl)o1` [CBK067752], the viability at 28.5 h, 10 µM stood at 89.3%.

For `COC(=O)C1(Cc2ccccc2-c2ccncc2)CCNC1` (stereo not drawn) [CBK281435], the viability at 28.5 h, 10 µM was found to be 85.2%.

For `CCN1CCN(C(=O)C2CCN(S(=O)(=O)c3ccc(Br)cc3)CC2)CC1` [CBK266881], the viability at 28.5 h, 10 µM worked out at 103%.

For the compound `O=C(O)CCC(=O)N1N=C(c2ccccc2)CC1c1ccc2nccnc2c1` (stereo not drawn) [CBK266650], the viability at 28.5 h, 10 µM was determined as 86.1%.

Regarding `CCOc1ccc2nc(NC3=NC(CC(=O)O)C(=O)N3)nc(C)c2c1` (stereo not drawn) [CBK263120], the viability at 28.5 h, 10 µM is 103%.

For the compound `FC(F)(F)c1ccnc(OCCc2c[nH]c3ccccc23)n1` [CBK116625], the viability at 28.5 h, 10 µM came out at 80.2%.

For the compound `C[C@H](NC(=O)Cc1ccc(-c2ccccc2)cc1)c1nc2ccccc2[nH]1` [CBK296998], the viability at 28.5 h, 10 µM came to 98.5%.

As for `N#Cc1ccc(CNC(=O)N2CCc3ccccc3C2)cc1` [CBK155287], the viability at 28.5 h, 10 µM was found to be 107%.

In the case of `O=C(Nc1ncc(-c2ccccc2)s1)c1cccc([N+](=O)[O-])c1` [CBK157055], the viability at 28.5 h, 10 µM is 92.7%.

With `CCCCOc1ccccc1C1CC(=O)Nc2c(-c3ccccc3F)csc21` (stereo not drawn) [CBK294439], the viability at 28.5 h, 10 µM was 81%.

In the case of `Cc1c(Cl)cccc1S(=O)(=O)Nc1nccnc1C(=O)O` [CBK024795], the viability at 28.5 h, 10 µM was 90.9%.

Consider `Cc1cc(CNS(=O)(=O)c2cccc3nonc23)nn1C` [CBK062157], for which the viability at 28.5 h, 10 µM turned out to be 98.2%.

As for `CC1(C)[C@H](Cc2cc(CN3CCOCC3)on2)C[C@@H]1NC(=O)C1CC1` [CBK289246], the viability at 28.5 h, 10 µM turned out to be 113%.

Take `COc1ccc2c(c1)c(=O)oc1cc(OCC(=O)N3CCc4ccccc4C3)ccc12` [CBK266346]: the viability at 28.5 h, 10 µM turned out to be 110%.

`CN1CCN(c2cccc(-c3cc(C(F)(F)F)cc(C(F)(F)F)c3)n2)CC1` [CBK036982]: the viability at 28.5 h, 10 µM came out at 93.3%.

With `COc1cccc(CNC(=O)c2cc3c(nc2N)CCN(Cc2cccc(C)c2OC)C3)c1` [CBK285682], the viability at 28.5 h, 10 µM worked out at 98.6%.

With `O=C1CCN(C(=O)c2ccccn2)CCN1Cc1cccc(F)c1` [CBK284467], the viability at 28.5 h, 10 µM was 90.5%.

For `CCOC(=O)C1(c2ccccc2)CCN(C(=O)c2ccc(OC(F)(F)F)cc2)CC1` [CBK132174], the viability at 28.5 h, 10 µM (bulk resorufin, single well) was 96.2%.

As to `O=C(CSc1nnc2sc3ccccc3n12)N1c2ccccc2Sc2ccccc21` [CBK265457], the viability at 28.5 h, 10 µM worked out at 89%.

As for `CNC(=O)c1ccc(-c2cc(OC)c(OC)c(OC)c2)nc1NCC1CC1` [CBK106312], the viability at 28.5 h, 10 µM turned out to be 101%.

Consider `CC(=O)c1nnn(-c2cc(Cl)ccc2Cl)c1C` [CBK085973], for which the viability at 28.5 h, 10 µM turned out to be 104%.

Consider `CCNC(=O)CN1CCN(C(C(=O)O)c2c[nH]c3ccc(C)cc23)CC1` (stereo not drawn) [CBK286694], for which the viability at 28.5 h, 10 µM came to 98%.

As for `Cc1cccc(OCCNC(=O)CSc2n[nH]c(=O)n2C2CC2)c1` [CBK295599], the viability at 28.5 h, 10 µM is 94.2%.

Turning to `O=c1[nH]c2ncc(-c3cccc4cccnc34)nc2n1C1CCCCC1` [CBK064215], the viability at 28.5 h, 10 µM was found to be 96%.

Consider `Cc1ccc(CN2C[C@@H](N)[C@H](c3cn(C)c4cnccc34)C2)o1` [CBK285180], for which the viability at 28.5 h, 10 µM was 84.2%.

For the compound `CCCNc1nccnc1-c1cccc(Cl)c1Cl` [CBK088892], the viability at 28.5 h, 10 µM is 93.8%.

On to `CCN(CC(=O)NCc1ccc(F)cc1)S(=O)(=O)c1c(C)n[nH]c1C` [CBK306074], for which the viability at 28.5 h, 10 µM was found to be 93.3%.

Take `O=C(c1ccccc1)c1ccc(OCCO)cc1` [CBK000725]: the viability at 28.5 h, 10 µM is 94%.

In the case of `Cc1ccc2[nH]c(SCc3nc(-c4cccs4)no3)nc2c1` [CBK269509], the viability at 28.5 h, 10 µM turned out to be 108%.

Turning to `CC(C)(C)C(=O)NCCn1nc(-c2cccs2)ccc1=O` [CBK283839], the viability at 28.5 h, 10 µM came to 103%.

As to `COc1ccc(-c2cnc(NS(C)(=O)=O)c(C(=O)NCc3ccco3)c2)cc1` [CBK076539], the viability at 28.5 h, 10 µM came out at 94.9%.

Turning to `CN1CCCc2ccc(S(=O)(=O)Nc3nc4ncccn4n3)cc21` [CBK305226], the viability at 28.5 h, 10 µM was found to be 85.7%.

On to `CCNc1cc(-c2ccc(OC)cc2)ncn1` [CBK090883], for which the viability at 28.5 h, 10 µM turned out to be 89%.

Regarding `Cc1nc(CN2CCC3(CC2)CN(C(=O)C(C)C)c2ccccc23)cs1` [CBK131476], the viability at 28.5 h, 10 µM worked out at 108%.

With `COCCCOc1nc2cc(Cl)c(Cl)cc2nc1N1CCCC1` [CBK115773], the viability at 28.5 h, 10 µM was found to be 95.9%.

Consider `CC(=O)c1cccc(NS(=O)(=O)c2ccc(OC(F)(F)F)cc2)c1` [CBK043606], for which the viability at 28.5 h, 10 µM was 88.5%.

`Cn1cc(C(=O)N2CCc3ccccc3C2)c2ccccc21` [CBK200338]: the viability at 28.5 h, 10 µM came to 90%.

In the case of `CCOC(=O)Cc1csc(NS(=O)(=O)c2cc(Cl)c(Cl)s2)n1` [CBK000847], the viability at 28.5 h, 10 µM was determined as 98%.

As to `Cc1csc(NC(=O)Cc2ccccc2F)n1` [CBK288252], the viability at 28.5 h, 10 µM stood at 84.3%.

Consider `c1ccc2oc(CN3CCC(N4CCCCC4)CC3)cc2c1` [CBK282052], for which the viability at 28.5 h, 10 µM worked out at 87.1%.

As to `Cc1nn(C)c(C)c1CCC(=O)N1CCc2ncc(Cl)cc2C1` [CBK284851], the viability at 28.5 h, 10 µM came to 114%.

For the compound `CC1CN(C)c2ccccc2CN1C(=O)Cc1cn2ccsc2n1` (stereo not drawn) [CBK306355], the viability at 28.5 h, 10 µM came out at 89.1%.

Turning to `COc1ccc([C@@]23CC[C@@H](NC(=O)CNc4ccc(Cl)c(Cl)c4)C[C@@H]2N(C)CC3)cc1OC` [CBK038220], the viability at 28.5 h, 10 µM worked out at 94.4%.

With `c1ccc(-c2nn3c(Cn4nnc5ccccc54)nnc3s2)cc1` [CBK268271], the viability at 28.5 h, 10 µM stood at 106%.

Regarding `O=c1[nH]cnc2c1cnn2[C@@H]1O[C@H](CO)[C@H](O)C1O` (stereo partly drawn) [CBK201245], the viability at 28.5 h, 10 µM came to 95.8%.

With `Cc1cccnc1CN1CCC2(CCc3ccccc3C(=O)N2)C1` (stereo not drawn) [CBK284611], the viability at 28.5 h, 10 µM turned out to be 96.4%.

Take `O=C(O)CCc1ccc(-c2ccc(F)cc2)n1Cc1ccco1` [CBK265953]: the viability at 28.5 h, 10 µM came to 83.9%.

Take `N#Cc1cc(F)cc(F)c1NC(=O)c1cccs1` [CBK066832]: the viability at 28.5 h, 10 µM came out at 90.2%.

On to `Oc1ccc(/C=N/c2nnn[nH]2)cc1` [CBK260976], for which the viability at 28.5 h, 10 µM turned out to be 101%.

Regarding `COc1ccc(S(=O)(=O)N2CCN(C(=O)c3cc(-c4ccncc4)nc4ccc(Br)cc34)CC2)cc1` [CBK267750], the viability at 28.5 h, 10 µM turned out to be 101%.

Consider `O=C(Cc1ccc(F)cc1)NCCn1nc(-c2ccco2)ccc1=O` [CBK283706], for which the viability at 28.5 h, 10 µM stood at 86.4%.

With `CCOC(=O)c1cnn(C2CCCN(C(=O)c3cscc3C)C2)c1` (stereo not drawn) [CBK305385], the viability at 28.5 h, 10 µM stood at 93.1%.

For the compound `CN(Cc1cccnc1)C(=O)CSC(c1ccccc1)c1ccccc1` [CBK298284], the viability at 28.5 h, 10 µM was found to be 90.7%.

As for `Cc1cc(C#N)ccc1OCC(=O)NC1CCS(=O)(=O)C1` (stereo not drawn) [CBK305816], the viability at 28.5 h, 10 µM came out at 84.9%.

`Cc1noc(C)c1CN1CCC(c2ccccc2)C1` (stereo not drawn) [CBK304451]: the viability at 28.5 h, 10 µM came out at 109%.

As for `Cc1ccc2nc(C(=O)O)cc(OCC(=O)Nc3ccccc3F)c2c1` [CBK287255], the viability at 28.5 h, 10 µM came to 88.8%.

With `O=C1NCCCC12CCN(Cc1ccc3ncccc3c1)CC2` [CBK284825], the viability at 28.5 h, 10 µM was 91.4%.

Take `CCCc1n[nH]c(=S)n1CC(=O)NCc1ccc(Oc2cc(C)ccc2C)nc1` [CBK297742]: the viability at 28.5 h, 10 µM came out at 87.5%.

As to `CS(=O)(=O)Nc1ccc(C(=O)Nc2ccc(S(=O)(=O)N3CCCC3)cc2)cc1` [CBK268592], the viability at 28.5 h, 10 µM amounted to 116%.

Take `CNC(=O)c1ccc(NS(=O)(=O)c2ccc(OC(F)(F)F)cc2)cc1` [CBK043495]: the viability at 28.5 h, 10 µM is 96.7%.

`O=C1CN(C(=O)NCc2cccc(C(F)(F)F)c2)CCN1` [CBK155850]: the viability at 28.5 h, 10 µM came to 105%.

For `CCOc1cccc(-c2cncc(N(C)CCN(C)C)n2)c1` [CBK065977], the viability at 28.5 h, 10 µM worked out at 102%.

In the case of `Cn1cc(CNCC2CCCN2c2cccnn2)c(-c2cccnc2)n1` (stereo not drawn) [CBK305326], the viability at 28.5 h, 10 µM amounted to 96.2%.

For `Cn1cccc1C(=O)N[C@H]1C[C@H]2C(=O)Nc3cc(Cl)ccc3C(=O)N2C1` [CBK289364], the viability at 28.5 h, 10 µM was 86.7%.

With `COCCNS(=O)(=O)c1ccc(C)cc1` [CBK002332], the viability at 28.5 h, 10 µM is 82.5%.

With `COc1ccccc1-c1ccc(NC(=O)CCc2ccc3c(c2)n(C)c(=O)n3C)cc1` [CBK286527], the viability at 28.5 h, 10 µM came out at 93.1%.

On to `Oc1cc(Cl)c(-c2ccccc2)nn1` [CBK022028], for which the viability at 28.5 h, 10 µM was 88.4%.

Consider `CC1CCC(C(=O)NC(Cc2ccccc2)C(=O)O)CC1` (stereo not drawn) [CBK287080], for which the viability at 28.5 h, 10 µM stood at 90.5%.

Consider `O=S(=O)(Nc1ccc(N2CCNCC2)c2ccccc12)c1cc(Cl)sc1Cl` [CBK003116C], for which the viability at 28.5 h, 10 µM was found to be 93.9%.

Regarding `COC(=O)c1cccc(Oc2nc(OC)cc(OC)n2)c1` [CBK092219], the viability at 28.5 h, 10 µM was 66.1%.

For the compound `O=C1COc2ccccc2CCCC[C@@H]2CNCC[C@H]2N1` [CBK292038], the viability at 28.5 h, 10 µM was 105%.

As to `Fc1ccc(CCN2CCC(Oc3cncc(OCc4cccnc4)n3)C2)cc1` (stereo not drawn) [CBK084469], the viability at 28.5 h, 10 µM worked out at 97.8%.

For the compound `O=C(c1ccccn1)N1C[C@@H]2OCC(=O)N(Cc3ccccc3)[C@@H]2C1` [CBK289698], the viability at 28.5 h, 10 µM is 84.3%.

For the compound `CSC(C)C(=O)N(C)C1CCN(c2ncnc3ccccc23)CC1` (stereo not drawn) [CBK305300], the viability at 28.5 h, 10 µM was determined as 83.4%.
